Values of other authors as cited in patent US20040024036A1, “Pharmaceutical composition for transdermal delivery of befloxatone” (priority 2000, published 2004).

Experiments:
[1] = system: serotonin (5-HT) reuptake
MAO-B = target: T1, MAO-B (Homo sapiens, UniProt P27338); details: MAO-A versus MAO-B
T1 sequence (P27338 1-520): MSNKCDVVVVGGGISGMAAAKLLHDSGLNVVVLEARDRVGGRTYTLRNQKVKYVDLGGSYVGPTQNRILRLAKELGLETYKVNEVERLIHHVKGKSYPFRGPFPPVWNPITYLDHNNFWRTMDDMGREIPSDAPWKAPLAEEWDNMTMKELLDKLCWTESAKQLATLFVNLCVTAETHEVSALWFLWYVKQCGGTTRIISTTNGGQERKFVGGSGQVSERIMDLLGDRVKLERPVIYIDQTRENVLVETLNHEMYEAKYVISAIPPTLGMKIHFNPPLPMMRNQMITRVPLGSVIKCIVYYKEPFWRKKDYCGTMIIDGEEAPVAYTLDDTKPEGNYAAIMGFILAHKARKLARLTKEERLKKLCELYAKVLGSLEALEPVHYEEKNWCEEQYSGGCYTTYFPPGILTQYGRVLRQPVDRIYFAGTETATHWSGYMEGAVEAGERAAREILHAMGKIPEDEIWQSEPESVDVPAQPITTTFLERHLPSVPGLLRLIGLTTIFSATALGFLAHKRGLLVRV

[2] = system: noradrenalin (NA) reuptake
MAO-A = target: T2, MAO-A (Homo sapiens, UniProt P21397); details: reversible inhibitor
T2 sequence (P21397 1-527): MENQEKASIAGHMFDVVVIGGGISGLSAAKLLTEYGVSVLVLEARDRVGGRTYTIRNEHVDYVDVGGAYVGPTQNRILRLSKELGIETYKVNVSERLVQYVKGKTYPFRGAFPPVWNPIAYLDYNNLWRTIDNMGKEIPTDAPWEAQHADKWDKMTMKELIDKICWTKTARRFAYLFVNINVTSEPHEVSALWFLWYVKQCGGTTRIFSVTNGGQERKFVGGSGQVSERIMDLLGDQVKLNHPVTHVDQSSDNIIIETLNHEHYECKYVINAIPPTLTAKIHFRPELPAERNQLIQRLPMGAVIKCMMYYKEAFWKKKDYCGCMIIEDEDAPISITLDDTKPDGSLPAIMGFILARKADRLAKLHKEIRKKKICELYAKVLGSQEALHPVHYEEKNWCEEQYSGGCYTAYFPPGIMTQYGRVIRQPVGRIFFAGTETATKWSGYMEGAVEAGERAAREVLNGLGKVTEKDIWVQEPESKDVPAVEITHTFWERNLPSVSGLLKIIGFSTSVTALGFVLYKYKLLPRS

selectivity toward the B isoform (MAO-B) (MAO-B): very good selectivity
affinity for the A isoform (MAO-A) (MAO-A): very high affinity
SMILES: COC[C@H]1CN(c2ccc(OCC[C@@H](O)C(F)(F)F)cc2)C(=O)O1 [befloxatone]
effect on dopamine (DA) reuptake (dopamine (DA) reuptake): does not affect
effect on serotonin (5-HT) reuptake [1]: does not affect
effect on noradrenalin (NA) reuptake [2]: does not affect
